In patent US9951366B2, “Cell-free protein synthesis method and device using a eukaryotic cell lysate in the presence of a caspase inhibitor and the use of a caspase inhibitor for increasing the yield and/or the stability of the synthesized proteins in such a method” (Fraunhofer-Gesellschaft zur Foerderung der angewandten …, priority 2013, dated 2018):

What was measured:
[1] = system: eukaryotic translation system on the basis of a cell extract from Spodoptera frugiperda (Sf21) insect cells; assay: Influence of irreversible and reversible caspase inhibitors on SII-eYFP synthesis, relative fluorescence intensity; assay type: biochemical; settings: inhibitor 30 μM, 48 h, dialysis mode, compared with control dialysis mixture without inhibitor
Protocol: Using the example of the fluorescent protein SII-eYFP, the influence of different irreversible caspase inhibitors (Z-VAD-FMK, Ac-VAD-CMK, Ac-DEVD-CMK (SEQ ID NO:1), Q-VD-OPh) and of a reversible caspase inhibitor (Ac-[…]-CHO (SEQ ID NO:10)) on the synthesis was investigated in a eukaryotic dialysis translation system.
The translation of SII-eYFP was carried out using the DNA template pIX3.0-SII-eYFP over 48 h at 600 rpm and 27° C. in the batch and dialysis modes in the presence of different irreversible and reversible caspase inhibitors. All inhibitors were used in a concentration of 30 μM. Following the completion of translation, the different mixtures were examined in the phosphorimager system (Typhoon TRIO+ imager, GE Healthcare) for their fluorescence intensity. For this purpose, 5 μl of each translation mixture was resuspended in 25 μl PBS. Subsequently, 25 μl of this sample was pipetted into a cavity of an Ibidi slide and measured, the excitation of the samples taking place at 488 nm and the emission being measured at 526 nm.

[2] = system: cell-free eukaryotic translation system on the basis of a cell extract from Spodoptera frugiperda (Sf21) insect cells; assay: Influence of DTT on expression of model proteins in batch and dialysis system (autoradiograph); assay type: biochemical; settings: with Z-VAD-FMK, 48 h
Protocol: For this purpose, the influence of the reducing agent DTT on the synthesis performance of the batch and dialysis system with different model proteins was investigated.
The synthesis of the glycoprotein erythropoietin (N-terminally fused to a melittin signal sequence; Mel-EPO; 20.9 kDa, unglycosylated) and of ETB (49.3 kDa), luciferase (60.6 kDa), Mel-Hb-EGF-eYFP (51 kDa) and bacteriorhodopsin (26.9 kDa) was carried out in the batch (B) and dialysis system (D) with the addition of the caspase inhibitor (Z-VAD-FMK) without (−) and with (+) the addition of DTT in the translation buffer in the presence of ^14C-leucine for 48 h, 27° C. and 600 rpm.
Control=translation mixture without the addition of a DNA template.

Compound | increase of synthesis yield of fluorescing SII-eYFP [1] [%] | effect of absence of DTT on expression of model proteins (luciferase, SII-eYFP, ETB, Mel-Hb-EGF-eYFP, bacteriorhodopsin) [2] | glycosylation of Mel-EPO ([2]; with/without DTT)
CC(C)C(NC(=O)c1ccc2ccccc2n1)C(=O)NC(CC(=O)O)C(=O)COc1c(F)cccc1F (stereo not drawn) [Q-VD-OPh, N-(2-quinolyl)-Val-Asp-(2,6-difluorophenoxy)-methylketone] | 77 |  | 
O[C@H](CS)[C@H](O)CS (racemic) [DTT, dithiothreitol] |  | no negative effect | complete glycosylation of the target protein could only be achieved in the presence of DTT
CC(=O)N[C@@H](CC(=O)O)C(=O)N[C@@H](CCC(=O)O)C(=O)N[C@H](C(=O)N[C@@H](CC(=O)O)C(=O)CCl)C(C)C [Ac-DEVD-CMK, acetyl-Asp-Glu-Val-Asp-chloromethylketone] | 122 |  | 
acetyl-Ala-Ala-Val-Ala-Leu-Leu-Pro-Ala-Val-Leu-Leu-Ala-Leu-Leu-Ala-Pro-Asp-Glu-Val-Asp-aldehyde (Ac-AAVALLPAVLLALLAPDEVD-aldehyde; SMILES CC(=O)N[C@@H](C)C(=O)N[C@@H](C)C(=O)N[C@H](C(=O)N[C@@H](C)C(=O)N[C@@H](CC(C)C)C(=O)N[C@@H](CC(C)C)C(=O)N1CCC[C@H]1C(=O)N[C@@H](C)C(=O)N[C@H](C(=O)N[C@@H](CC(C)C)C(=O)N[C@@H](CC(C)C)C(=O)N[C@@H](C)C(=O)N[C@@H](CC(C)C)C(=O)N[C@@H](CC(C)C)C(=O)N[C@@H](C)C(=O)N1CCC[C@H]1C(=O)N[C@@H](CC(=O)O)C(=O)N[C@@H](CCC(=O)O)C(=O)N[C@H](C(=O)N[C@H](C=O)CC(=O)O)C(C)C)C(C)C)C(C)C) | 53 |  | 
